From patent US9018206B2, “Carboxamide compounds and their use as calpain inhibitors” (AbbVie Deutschland GmbH & Co. KG, priority 2009, dated 2015)

Experiments:
Assay type in all cases: biochemical
[1] = target: T1, calpain-I isolated from human erythrocytes (Homo sapiens, UniProt P07384); assay: Calpain I enzyme inhibition in vitro (kinetic fluorescence assay); conditions: apparent Ki from IC50 (Cheng-Prussoff); 20 nM calpain-I, 100 μM Suc-Leu-Tyr-AMC, pH 7.3, room temperature
T1 construct: calpain-I—isolated from human erythrocytes; purchased Calbiochem 208713; host or cells: human erythrocytes (tissue-derived)
T1 sequence (P07384 1-714): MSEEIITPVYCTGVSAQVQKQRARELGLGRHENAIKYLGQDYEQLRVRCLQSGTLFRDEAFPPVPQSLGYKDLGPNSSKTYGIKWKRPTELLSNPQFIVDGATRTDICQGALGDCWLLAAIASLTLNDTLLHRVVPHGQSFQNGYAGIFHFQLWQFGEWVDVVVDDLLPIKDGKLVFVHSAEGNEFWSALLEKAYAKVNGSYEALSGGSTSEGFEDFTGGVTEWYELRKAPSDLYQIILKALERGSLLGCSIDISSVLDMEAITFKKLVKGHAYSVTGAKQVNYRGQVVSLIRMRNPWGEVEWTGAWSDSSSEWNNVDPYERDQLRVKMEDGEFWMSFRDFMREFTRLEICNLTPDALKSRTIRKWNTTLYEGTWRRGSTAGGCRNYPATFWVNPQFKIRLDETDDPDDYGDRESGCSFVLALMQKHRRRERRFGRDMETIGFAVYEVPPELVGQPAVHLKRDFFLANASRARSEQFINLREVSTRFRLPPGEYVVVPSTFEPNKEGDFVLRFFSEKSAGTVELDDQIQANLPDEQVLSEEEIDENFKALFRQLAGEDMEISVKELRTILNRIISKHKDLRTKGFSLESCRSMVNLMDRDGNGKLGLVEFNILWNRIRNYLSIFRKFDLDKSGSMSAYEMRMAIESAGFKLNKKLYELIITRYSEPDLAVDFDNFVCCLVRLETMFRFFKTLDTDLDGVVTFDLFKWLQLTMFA
T1 sequence (P04632 1-268 partner): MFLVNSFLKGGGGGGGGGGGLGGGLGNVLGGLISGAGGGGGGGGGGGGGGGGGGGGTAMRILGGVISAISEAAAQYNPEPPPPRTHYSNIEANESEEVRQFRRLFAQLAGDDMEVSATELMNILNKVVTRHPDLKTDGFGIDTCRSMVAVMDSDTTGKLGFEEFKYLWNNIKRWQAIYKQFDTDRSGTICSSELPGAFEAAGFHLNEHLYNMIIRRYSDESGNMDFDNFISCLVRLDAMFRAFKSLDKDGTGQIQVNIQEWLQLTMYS
Protocol: (§1) Testing for blockade of the corresponding enzymic activities was carried out by means of kinetic fluorescence assays (excitation 390 nm, emission 460 nm).
(§2) Apparent Ki values were calculated from the experimentally determined IC50 values by the Cheng-Prussoff relation assuming a reversible competitive enzyme inhibition. The Km values of the substrates used under the assay conditions indicated above were: 90 μM (Z-Phe-Arg-AMC, cathepsin B), 10 μM (Z-Gly-Pro-Arg-AMC, cathepsin K), 2 μM (Z-Phe-Arg-AMC, cathepsin L), and 30 μM (Z-Val-Val-Arg-AMC, cathepsin S).
(§3) The indicated Ki values are averages of the inhibition constants calculated on the basis of 2 to 4 independent dose-effect plots.
(§4) • 20 nM calpain-I—isolated from human erythrocytes (Calbiochem #208713), 100 μM Suc-Leu-Tyr-AMC (Bachem #I-1355) as substrate in buffer with 62 mM imidazole, 0.3 mM CaCl2, 0.10% CHAPS, 0.05% BSA, 1 mM DTT at pH 7.3 and room temperature. 1. Cathepsin B: • 0.25 nM cathepsin B—isolated from human liver (Calbiochem #219362), 100 μM Z-Phe-Arg-AMC (Bachem #I-1160) as substrate 50 mM MES, 2 mM EDTA, 0.05% Brij 35, 2.5 mM L-cysteine, pH 6.0, room temperature. 3. Cathepsin K: • 3 nM cathepsin K activated from recombinant human procathepsin K from E. coli (Calbiochem #342001), 10 μM Z-Gly-Pro-Arg-AMC (Biomol #P-142) as substrate in 50 mM MES, 2 mM EDTA, 0.05% Brij 35, 2.5 mM L-cysteine, pH 6.0, room temperature. 4. Cathepsin L: • 1 nM cathepsin L—isolated from human liver (Calbiochem #219402), 2 μM Z-Phe-Arg-AMC (Bachem #I-1160) as substrate in 50 mM MES, 2 mM EDTA, 0.05% Brij 35, 2.5 mM L-cysteine, pH 6.0, room temperature. 5. Cathepsin S: • 0.5 nM recombinant human cathepsin S from E. coli (Calbiochem #219343), 20 μM Z-Val-Val-Arg-AMC (Bachem #I-1540) as substrate in 50 mM MES, 2 mM EDTA, 0.05% Brij 35, 2.5 mM L-cysteine, pH 6.0, room temperature.

[2] = target: T2, cathepsin B isolated from human liver (Homo sapiens, UniProt P07858); assay: Cathepsin B enzyme inhibition in vitro (kinetic fluorescence assay); conditions: Ki(cathepsin B)/Ki(calpain) ratio
T2 construct: cathepsin B—isolated from human liver; purchased Calbiochem 219362; host or cells: human liver (tissue-derived)
Protocol: as §1, §2, §3, §4

[3] = target: T3, cathepsin K activated from recombinant human procathepsin K (Homo sapiens, UniProt P43235); assay: Cathepsin K enzyme inhibition in vitro (kinetic fluorescence assay); conditions: Ki(cathepsin K)/Ki(calpain) ratio
T3 construct: purchased Calbiochem 342001; host or cells: E. coli
T3 sequence (P43235 115-329): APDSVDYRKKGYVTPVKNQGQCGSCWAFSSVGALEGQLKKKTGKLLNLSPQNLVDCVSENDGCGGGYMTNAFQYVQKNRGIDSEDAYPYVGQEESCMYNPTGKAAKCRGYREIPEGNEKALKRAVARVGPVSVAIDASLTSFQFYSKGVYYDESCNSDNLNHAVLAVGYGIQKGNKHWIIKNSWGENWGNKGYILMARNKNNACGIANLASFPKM
Protocol: as §1, §2, §3, §4

[4] = target: T4, cathepsin L isolated from human liver (Homo sapiens, UniProt P07711); assay: Cathepsin L enzyme inhibition in vitro (kinetic fluorescence assay); conditions: Ki(cathepsin L)/Ki(calpain) ratio
T4 construct: cathepsin L—isolated from human liver; purchased Calbiochem 219402; host or cells: human liver (tissue-derived)
T4 sequence (P07711 114-333): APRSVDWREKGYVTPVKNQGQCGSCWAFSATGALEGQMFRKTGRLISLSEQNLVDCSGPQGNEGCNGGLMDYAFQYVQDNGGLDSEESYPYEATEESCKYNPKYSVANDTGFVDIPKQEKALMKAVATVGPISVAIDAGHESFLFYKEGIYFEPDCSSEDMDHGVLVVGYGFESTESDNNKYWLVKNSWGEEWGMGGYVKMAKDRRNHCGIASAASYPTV
Protocol: as §1, §2, §3, §4

[5] = target: T5, recombinant human cathepsin S (Homo sapiens, UniProt P25774); assay: Cathepsin S enzyme inhibition in vitro (kinetic fluorescence assay); conditions: Ki(cathepsin S)/Ki(calpain) ratio
T5 construct: purchased Calbiochem 219343; host or cells: E. coli
T5 sequence (P25774 115-331): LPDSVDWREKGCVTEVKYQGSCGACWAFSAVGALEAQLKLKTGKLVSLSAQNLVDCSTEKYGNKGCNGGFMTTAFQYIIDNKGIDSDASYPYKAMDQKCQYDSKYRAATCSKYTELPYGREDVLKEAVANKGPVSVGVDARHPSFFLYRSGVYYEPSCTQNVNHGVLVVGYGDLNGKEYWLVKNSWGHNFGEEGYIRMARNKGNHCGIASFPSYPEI
Protocol: as §1, §2, §3, §4

Row | Compound | Ki [1] [nM] | Sel cat. B [2] | Sel cat. K [3] | Sel cat. L [4] | Sel cat. S [5]
1 | CCNC(=O)C(=O)C(Cc1ccccc1)NC(=O)[C@H]1CCC(=O)N1Cc1ccccc1Cl (mixture of isomers) [Example 47, (2R)-1-(2-Chlorobenzyl)-N-(4-(ethylamino)-3,4-dioxo-1-phenylbutan-2-yl)-5-oxopyrrolidine-2-carboxamide] | 100 to 600 | +++ (Ki(cathepsin B)/Ki(calpain) ratio of >30) | +++ (Ki(cathepsin K)/Ki(calpain) ratio of >30) | +++ (Ki(cathepsin L)/Ki(calpain) ratio of >30) | ++ (30<Ki(cathepsin B)/Ki(calpain)≦100)
2 | O=C(NCc1nccs1)C(=O)C(Cc1ccccc1)NC(=O)[C@H]1CCC(=O)N1Cc1ccccc1 (mixture of isomers) [Example 59, (2R)-1-Benzyl-N-(3,4-dioxo-1-phenyl-4-(thiazol-2-ylmethylamino)butan-2-yl)-5-oxopyrrolidine-2-carboxamide] | 100 to 600 | +++ (Ki(cathepsin B)/Ki(calpain) ratio of >30) | +++ (Ki(cathepsin K)/Ki(calpain) ratio of >30) | ++ (10<Ki(cathepsin B)/Ki(calpain)≦30) | +++ (Ki(cathepsin S)/Ki(calpain) ratio of >100)
3 | O=C(NC1CC1)C(=O)C(Cc1ccccc1)NC(=O)[C@H]1CCC(=O)N1Cc1c(Cl)cccc1Cl (mixture of isomers) [Example 61, (2R)—N-(4-(Cyclopropylamino)-3,4-dioxo-1-phenylbutan-2-yl)-1-(2,6-dichlorobenzyl)-5-oxopyrrolidine-2-carboxamide] | 100 to 600 | + (5<Ki(cathepsin B)/Ki(calpain)≦10) | +++ (Ki(cathepsin K)/Ki(calpain) ratio of >30) | +++ (Ki(cathepsin L)/Ki(calpain) ratio of >30) | +++ (Ki(cathepsin S)/Ki(calpain) ratio of >100)
4 | CCNC(=O)C(=O)C(Cc1ccccc1)NC(=O)[C@H]1CCC(=O)N1Cc1c(Cl)cccc1Cl (mixture of isomers) [Example 62, (2R)-1-(2,6-Dichlorobenzyl)-N-(4-(ethylamino)-3,4-dioxo-1-phenylbutan-2-yl)-5-oxopyrrolidine-2-carboxamide] | 100 to 600 | ++ (10<Ki(cathepsin B)/Ki(calpain)≦30) | ++ (10<Ki(cathepsin B)/Ki(calpain)≦30) | ++ (10<Ki(cathepsin B)/Ki(calpain)≦30) | ++ (30<Ki(cathepsin B)/Ki(calpain)≦100)
5 | O=C(NCc1ccncc1)C(=O)C(Cc1ccccc1)NC(=O)[C@H]1CCC(=O)N1Cc1ccccc1 (mixture of isomers) [Example 63, (2R)-1-Benzyl-N-(3,4-dioxo-1-phenyl-4-(pyridin-4-ylmethylamino)butan-2-yl)-5-oxopyrrolidine-2-carboxamide] | 50 to 100 | +++ (Ki(cathepsin B)/Ki(calpain) ratio of >30) | +++ (Ki(cathepsin K)/Ki(calpain) ratio of >30) | +++ (Ki(cathepsin L)/Ki(calpain) ratio of >30) | +++ (Ki(cathepsin S)/Ki(calpain) ratio of >100)
6 | O=C(Nc1ccccc1)C(=O)C(Cc1ccccc1)NC(=O)[C@H]1CCC(=O)N1Cc1ccccc1 (mixture of isomers) [Example 65, (2R)-1-Benzyl-N-(3,4-dioxo-1-phenyl-4-(phenylamino)butan-2-yl)-5-oxopyrrolidine-2-carboxamide] | 50 to 100 | +++ (Ki(cathepsin B)/Ki(calpain) ratio of >30) | +++ (Ki(cathepsin K)/Ki(calpain) ratio of >30) | +++ (Ki(cathepsin L)/Ki(calpain) ratio of >30) | +++ (Ki(cathepsin S)/Ki(calpain) ratio of >100)
7 | NC(=O)C(=O)C(Cc1ccccc1)NC(=O)[C@H]1CCC(=O)N1c1ccccc1 (stereo partly drawn) [Example 15, (2R)—N-(4-Amino-3,4-dioxo-1-phenylbutan-2-yl)-5-oxo-1-phenylpyrrolidine-2-carboxamide] |  | ++ (10<Ki(cathepsin B)/Ki(calpain)≦30) | + (5<Ki(cathepsin K)/Ki(calpain)≦10) | + (5<Ki(cathepsin L)/Ki(calpain)≦10) | + (10<Ki(cathepsin S)/Ki(calpain)≦30)

Further lines, with some results ahead:

Row | Ki [1] [nM] | Compound | Sel cat. B [2] | Sel cat. K [3] | Sel cat. L [4] | Sel cat. S [5]
8 | < 50 | NC(=O)C(=O)C(Cc1ccccc1)NC(=O)[C@H]1CCC(=O)N1Cc1ccccc1 (mixture of isomers) [Example 1, (2R)—N-(4-Amino-3,4-dioxo-1-phenylbutan-2-yl)-1-benzyl-5-oxopyrrolidine-2-carboxamide] | ++ (10<Ki(cathepsin B)/Ki(calpain)≦30) | ++ (10<Ki(cathepsin B)/Ki(calpain)≦30) | ++ (10<Ki(cathepsin B)/Ki(calpain)≦30) | +++ (Ki(cathepsin S)/Ki(calpain) ratio of >100)
9 | 50 to 100 | O=C(NC1CC1)C(=O)C(Cc1ccccc1)NC(=O)[C@H]1CCC(=O)N1Cc1ccccc1Cl (mixture of isomers) [Example 46, (2R)-1-(2-Chlorobenzyl)-N-(4-(cyclopropylamino)-3,4-dioxo-1-phenylbutan-2-yl)-5-oxopyrrolidine-2-carboxamide] | ++ (10<Ki(cathepsin B)/Ki(calpain)≦30) | +++ (Ki(cathepsin K)/Ki(calpain) ratio of >30) | +++ (Ki(cathepsin L)/Ki(calpain) ratio of >30) | +++ (Ki(cathepsin S)/Ki(calpain) ratio of >100)
10 | 50 to 100 | O=C(NCc1cccs1)C(=O)C(Cc1ccccc1)NC(=O)[C@H]1CCC(=O)N1Cc1ccccc1 (mixture of isomers) [Example 60, (2R)-1-Benzyl-N-(3,4-dioxo-1-phenyl-4-(thiophen-2-ylmethylamino)butan-2-yl)-5-oxopyrrolidine-2-carboxamide] | +++ (Ki(cathepsin B)/Ki(calpain) ratio of >30) | +++ (Ki(cathepsin K)/Ki(calpain) ratio of >30) | ++ (10<Ki(cathepsin B)/Ki(calpain)≦30) | +++ (Ki(cathepsin S)/Ki(calpain) ratio of >100)
